Columns and labels:
[1] = tested on: mice; settings: cited from earlier work
[2] = biological target: T1, cytosolic PLA2 (Bos taurus, UniProt A4IFJ5); assay: Inhibition of cytosolic phospholipase A2 in intact bovine platelets stimulated with calcium ionophore A23187; released arachidonic acid determined by reversed phase HPLC with UV detection; type: cell-based; settings: A23187 stimulation, 5,8,11,14-eicosatetraynoic acid added, test substances normally dissolved in DMSO
T1 construct: endogenous in cells; host or cells: intact bovine platelets
T1 sequence (A4IFJ5 1-749): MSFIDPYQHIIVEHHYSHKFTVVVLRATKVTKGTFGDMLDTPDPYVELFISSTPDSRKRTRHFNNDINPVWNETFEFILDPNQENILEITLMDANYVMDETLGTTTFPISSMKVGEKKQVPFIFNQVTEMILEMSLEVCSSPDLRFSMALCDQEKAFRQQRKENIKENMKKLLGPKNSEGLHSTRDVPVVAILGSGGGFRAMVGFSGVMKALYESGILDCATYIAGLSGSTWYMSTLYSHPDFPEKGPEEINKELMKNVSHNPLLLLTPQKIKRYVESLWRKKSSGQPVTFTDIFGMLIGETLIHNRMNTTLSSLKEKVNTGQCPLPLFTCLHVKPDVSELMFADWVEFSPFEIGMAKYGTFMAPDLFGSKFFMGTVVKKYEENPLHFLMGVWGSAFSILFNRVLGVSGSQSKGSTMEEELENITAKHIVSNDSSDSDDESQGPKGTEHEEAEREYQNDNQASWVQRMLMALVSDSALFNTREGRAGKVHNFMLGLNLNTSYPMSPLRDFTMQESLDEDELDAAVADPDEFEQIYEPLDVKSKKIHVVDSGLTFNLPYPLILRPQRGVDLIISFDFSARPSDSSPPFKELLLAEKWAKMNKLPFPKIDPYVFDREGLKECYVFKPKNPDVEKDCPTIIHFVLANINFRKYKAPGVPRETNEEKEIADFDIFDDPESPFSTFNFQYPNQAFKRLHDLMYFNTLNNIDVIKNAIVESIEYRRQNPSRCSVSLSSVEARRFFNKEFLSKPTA
Excerpt: The efficacy of the compounds according to the invention can be determined on the basis of the inhibition of phospholipase A2. For this purpose, the phospholipaase A2 in intact bovine platelets is stimulated with calcium ionophore A23187, and thus the release of arachidonic acid from the membrane phospholipids is induced. In order to prevent metabolism of the enzyme product arachidonic acid by the cyclooxygenase pathway and the 12-lipoxygenase pathway, in this case the dual cyclooxygenase/12-lipoxygenase inhibitor 5,8,11,14-eicosatetraynoic acid is added. After purification by solid phase extraction, the released arachidonic acid is determined by reversed phase HPLC with UV detection. The inhibition of the enzyme by a test substance is evident from the ratio between the amounts of arachidonic acid formed in the presence and in the absence of the test substance. Further details of the test system are to be found in Example 15.
The efficacy of the compounds according to the invention can be determined from the inhibition of phospholipase A2. The assay method used has already been described (see Lehr M., In-vitro assay for the evaluation of phospholipase A2 inhibitors using bovine platelets and HPLC with UV-detection. Pharm.Pharmacol. Lett. 1992, 2, 176-179). The test substances were normally dissolved in DMSO.

SMILES | analgesic effect [1] | IC50 [2]
Cn1c(C(=O)O)ccc1C(=O)C=Cc1ccccc1 [1-methyl-5-(3-phenylacryloyl)pyrrol-2-ylformic acid] | analgesic effect | 
CCCCCCCCCCCC(=O)c1c(C)c(CC(=O)O)n(Cc2cccc(/C=C/C(=O)O)c2)c1C [Example 2, (E)-3-{[2-(Carboxymethyl)-4-dodecanoyl-3,5-dimethyl-pyrrol-1-yl]methyl}cinnamic acid] |  | 4.6 µM
CCCCCCCCCCCC(=O)c1c(C)c(CC(=O)O)n(Cc2cccc(CCC(=O)O)c2)c1C [Example 3, 3-(3-{[2-(Carboxymethyl)-4-dodecanoyl-3,5-dimethyl-pyrrol-1-yl]methyl}phenyl)propionic acid] |  | 3 µM
CCCCCCCCCCCC(=O)c1c(C(=O)O)n(CCOc2cccc(CC(=O)O)c2)c2ccccc12 [Example 13, 1-{2-[3-(carboxymethyl)phenoxy]ethyl}-3-dodecanoyl-indole-2-carboxylic acid] |  | 1.6 µM
CCCCCCCCCCCC(=O)c1c(C(=O)O)n(CCOc2ccc(CC(=O)O)cc2)c2ccccc12 [Example 14, 1-{2-[4-(Carboxymethyl)phenoxy]ethyl}-3-dodecanoyl-indole-2-carboxylic acid] |  | 1.6 µM
